Assay results from the NIST ThermoML archive (doi:10.1016/j.tca.2012.07.024).
± gives the expanded uncertainty stated by the source.

Assay: xn = mol fraction of the nth substance listed
Conditions: Liquid, Vibrating tube method, x1 = 0.33

Question: With `C[N+](C)(C)CCO.[Cl-]` [choline chloride] + OCCO as the compound, how does the mass density (298.15 K, 100 kPa) read?
Answer: 1117.4 ± 2.4 kg/m3

Question: What about the mass density (298.15 K, 5000 kPa) of the same compound?
Answer: 1119 ± 2.5 kg/m3

Question: And the mass density (298.15 K, 10000 kPa)?
Answer: 1120.6 ± 2.5 kg/m3

Question: And the mass density (298.15 K, 15000 kPa)?
Answer: 1122.1 ± 2.5 kg/m3

Question: What about the mass density (298.15 K, 20000 kPa) of the same compound?
Answer: 1123.6 ± 2.5 kg/m3

Question: What about the mass density (298.15 K, 25000 kPa) of the same compound?
Answer: 1125.1 ± 2.5 kg/m3

Question: What about the mass density (298.15 K, 30000 kPa) of the same compound?
Answer: 1126.6 ± 2.5 kg/m3

Question: What about the mass density (298.15 K, 35000 kPa) of the same compound?
Answer: 1128.1 ± 2.5 kg/m3

Question: And the mass density (298.15 K, 40000 kPa)?
Answer: 1129.6 ± 2.6 kg/m3

Question: And the mass density (298.15 K, 45000 kPa)?
Answer: 1131 ± 2.6 kg/m3

Question: What about the mass density (298.15 K, 50000 kPa) of the same compound?
Answer: 1132.4 ± 2.6 kg/m3

Question: What about the mass density (303.15 K, 100 kPa) of the same compound?
Answer: 1114.5 ± 2.4 kg/m3

Question: And the mass density (303.15 K, 5000 kPa)?
Answer: 1116.1 ± 2.5 kg/m3

Question: And the mass density (303.15 K, 10000 kPa)?
Answer: 1117.7 ± 2.5 kg/m3

Question: What about the mass density (303.15 K, 15000 kPa) of the same compound?
Answer: 1119.3 ± 2.5 kg/m3

Question: And the mass density (303.15 K, 20000 kPa)?
Answer: 1120.8 ± 2.5 kg/m3

Question: And the mass density (303.15 K, 25000 kPa)?
Answer: 1122.3 ± 2.5 kg/m3

Question: And the mass density (303.15 K, 30000 kPa)?
Answer: 1123.8 ± 2.5 kg/m3

Question: And the mass density (303.15 K, 35000 kPa)?
Answer: 1125.3 ± 2.5 kg/m3

Question: And the mass density (303.15 K, 40000 kPa)?
Answer: 1126.8 ± 2.5 kg/m3

Question: And the mass density (303.15 K, 45000 kPa)?
Answer: 1128.2 ± 2.6 kg/m3

Question: What about the mass density (303.15 K, 50000 kPa) of the same compound?
Answer: 1129.6 ± 2.6 kg/m3

Question: What about the mass density (308.15 K, 100 kPa) of the same compound?
Answer: 1111.6 ± 2.4 kg/m3

Question: And the mass density (308.15 K, 5000 kPa)?
Answer: 1113.2 ± 2.4 kg/m3

Question: And the mass density (308.15 K, 10000 kPa)?
Answer: 1114.8 ± 2.5 kg/m3

Question: And the mass density (308.15 K, 15000 kPa)?
Answer: 1116.4 ± 2.5 kg/m3

Question: And the mass density (308.15 K, 20000 kPa)?
Answer: 1117.9 ± 2.5 kg/m3

Question: And the mass density (308.15 K, 25000 kPa)?
Answer: 1119.5 ± 2.5 kg/m3

Question: What about the mass density (308.15 K, 30000 kPa) of the same compound?
Answer: 1121 ± 2.5 kg/m3

Question: And the mass density (308.15 K, 35000 kPa)?
Answer: 1122.5 ± 2.5 kg/m3

Question: And the mass density (308.15 K, 40000 kPa)?
Answer: 1124 ± 2.5 kg/m3

Question: And the mass density (308.15 K, 45000 kPa)?
Answer: 1125.5 ± 2.6 kg/m3

Question: What about the mass density (308.15 K, 50000 kPa) of the same compound?
Answer: 1126.9 ± 2.6 kg/m3

Question: What about the mass density (313.15 K, 100 kPa) of the same compound?
Answer: 1108.7 ± 2.4 kg/m3

Question: And the mass density (313.15 K, 5000 kPa)?
Answer: 1110.3 ± 2.4 kg/m3

Question: What about the mass density (313.15 K, 10000 kPa) of the same compound?
Answer: 1111.9 ± 2.4 kg/m3

Question: What about the mass density (313.15 K, 15000 kPa) of the same compound?
Answer: 1113.5 ± 2.5 kg/m3

Question: And the mass density (313.15 K, 20000 kPa)?
Answer: 1115.1 ± 2.5 kg/m3

Question: What about the mass density (313.15 K, 25000 kPa) of the same compound?
Answer: 1116.6 ± 2.5 kg/m3

Question: What about the mass density (313.15 K, 30000 kPa) of the same compound?
Answer: 1118.2 ± 2.5 kg/m3

Question: And the mass density (313.15 K, 35000 kPa)?
Answer: 1119.7 ± 2.5 kg/m3

Question: And the mass density (313.15 K, 40000 kPa)?
Answer: 1121.2 ± 2.5 kg/m3

Question: And the mass density (313.15 K, 45000 kPa)?
Answer: 1122.7 ± 2.5 kg/m3

Question: What about the mass density (313.15 K, 50000 kPa) of the same compound?
Answer: 1124.1 ± 2.6 kg/m3

Question: And the mass density (318.15 K, 100 kPa)?
Answer: 1105.9 ± 2.4 kg/m3

Question: And the mass density (318.15 K, 5000 kPa)?
Answer: 1107.5 ± 2.4 kg/m3

Question: What about the mass density (318.15 K, 10000 kPa) of the same compound?
Answer: 1109.1 ± 2.4 kg/m3

Question: And the mass density (318.15 K, 15000 kPa)?
Answer: 1110.7 ± 2.5 kg/m3

Question: And the mass density (318.15 K, 20000 kPa)?
Answer: 1112.3 ± 2.5 kg/m3

Question: And the mass density (318.15 K, 25000 kPa)?
Answer: 1113.8 ± 2.5 kg/m3

Question: And the mass density (318.15 K, 30000 kPa)?
Answer: 1115.4 ± 2.5 kg/m3

Question: And the mass density (318.15 K, 35000 kPa)?
Answer: 1116.9 ± 2.5 kg/m3

Question: And the mass density (318.15 K, 40000 kPa)?
Answer: 1118.4 ± 2.5 kg/m3

Question: What about the mass density (318.15 K, 45000 kPa) of the same compound?
Answer: 1119.9 ± 2.5 kg/m3

Question: What about the mass density (318.15 K, 50000 kPa) of the same compound?
Answer: 1121.4 ± 2.6 kg/m3

Question: And the mass density (323.15 K, 100 kPa)?
Answer: 1103 ± 2.4 kg/m3

Question: And the mass density (323.15 K, 5000 kPa)?
Answer: 1104.7 ± 2.4 kg/m3

Question: And the mass density (323.15 K, 10000 kPa)?
Answer: 1106.3 ± 2.4 kg/m3

Question: And the mass density (323.15 K, 15000 kPa)?
Answer: 1107.9 ± 2.4 kg/m3

Question: What about the mass density (323.15 K, 20000 kPa) of the same compound?
Answer: 1109.5 ± 2.5 kg/m3

Question: And the mass density (323.15 K, 25000 kPa)?
Answer: 1111 ± 2.5 kg/m3

Question: What about the mass density (323.15 K, 30000 kPa) of the same compound?
Answer: 1112.6 ± 2.5 kg/m3

Question: What about the mass density (323.15 K, 35000 kPa) of the same compound?
Answer: 1114.1 ± 2.5 kg/m3

Question: And the mass density (323.15 K, 40000 kPa)?
Answer: 1115.7 ± 2.5 kg/m3

Question: And the mass density (323.15 K, 45000 kPa)?
Answer: 1117.2 ± 2.5 kg/m3

Question: What about the mass density (323.15 K, 50000 kPa) of the same compound?
Answer: 1118.7 ± 2.5 kg/m3
